In PubChem BioAssay AID248 (DTP/NCI, 2004):
Where “and” joins values, the source holds several entries; their conditions need not be identical. Equal values may be shown once. Toxic doses and inconclusive results are not listed.

System: L1210 leukemia ip in BDF1 mice, survival T/C
Test: NCI In Vivo Anticancer Drug Screen. Data for tumor model L1210 Leukemia (intraperitoneal) in B6D2F1 (BDF1) mice
Conditions: endpoint: mean survival time, higher = longer survival
Method in brief: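 Tumor cells were implanted, animals were treated, and survival was followed. The result divides the treated measurement by the vehicle-control measurement.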

O=c1[nH]c(=O)n(C2CC(O)C(CO)O2)cc1C(F)(F)F (stereo unspecified)
T/C (dose: 0.16 mg/kg/injection, schedule: Q#B X045 (ip), vehicle: saline): 109 % of control
T/C (dose: 0.33 mg/kg/injection, schedule: Q#B X045 (ip), vehicle: saline): 119 % of control
T/C (dose: 0.56 mg/kg/injection, schedule: Q01DX Z (ip), vehicle: saline): 112 % of control
T/C (dose: 0.66 mg/kg/injection, schedule: Q#B X045 (ip), vehicle: saline): 122 % of control
T/C (dose: 1.12 mg/kg/injection, schedule: Q01DX Z (ip), vehicle: saline): 106 % of control
T/C (dose: 1.5 mg/kg/injection, schedule: Q01DX Z (sc), vehicle: saline): 112 % of control
T/C (dose: 2.25 mg/kg/injection, schedule: Q01DX Z (ip), vehicle: saline): 118 % of control
T/C (dose: 3.0 mg/kg/injection, schedule: Q01DX Z (sc), vehicle: saline): 114 % of control
T/C (dose: 3.12 mg/kg/injection, schedule: Q01DX Z (im), vehicle: saline): 104 % of control
T/C (dose: 4.5 mg/kg/injection, schedule: Q01DX Z (ip), vehicle: saline): 114 % of control
T/C (dose: 6.0 mg/kg/injection, schedule: Q01DX Z (sc), vehicle: saline): 118 % of control
T/C (dose: 6.25 mg/kg/injection, schedule: Q01DX006 (iv), vehicle: saline): 121 % of control
T/C (dose: 6.25 mg/kg/injection, schedule: Q01DX015 (ip), vehicle: saline): 120 % of control
T/C (dose: 9.0 mg/kg/injection, schedule: Q01DX Z (ip), vehicle: saline): 153 % of control
T/C (dose: 12.0 mg/kg/injection, schedule: Q01DX Z (sc), vehicle: saline): 118 % of control
T/C (dose: 12.5 mg/kg/injection, schedule: Q01DX006 (iv), vehicle: saline): 115 % of control
T/C (dose: 12.5 mg/kg/injection, schedule: Q01DX Z (oral), vehicle: saline): 120 % of control
T/C (dose: 18.0 mg/kg/injection, schedule: Q01DX Z (ip), vehicle: saline): 150 % of control
T/C (dose: 18.75 mg/kg/injection, schedule: Q#A X034 (ip), vehicle: water): 122 % of control
T/C (dose: 20.0 mg/kg/injection, schedule: Q01DX009 (oral), vehicle: saline): 116 % of control
T/C (dose: 20.0 mg/kg/injection, schedule: Q01DX Z (ip), vehicle: saline): 119 % of control
T/C (dose: 25.0 mg/kg/injection, schedule: Q01DX015 (ip), vehicle: saline): 152 % of control
T/C (dose: 25.0 mg/kg/injection, schedule: Q01DX Z (ip), vehicle: saline): 160 % of control
T/C (dose: 25.0 mg/kg/injection, schedule: Q01DX Z (oral), vehicle: saline): 120 % of control
T/C (dose: 38.0 mg/kg/injection, schedule: Q01DX Z (ip), vehicle: water): 117 % of control
T/C (dose: 40.0 mg/kg/injection, schedule: Q01DX009 (oral), vehicle: saline): 121 % of control
T/C (dose: 45.0 mg/kg/injection, schedule: Q01DX015 (oral), vehicle: saline): 122 % of control
T/C (dose: 50.0 mg/kg/injection, schedule: Q01DX Z (ip), vehicle: saline): 154 % of control
T/C (dose: 50.0 mg/kg/injection, schedule: Q01DX Z (sc), vehicle: saline): 156 % of control
T/C (dose: 64.0 mg/kg/injection, schedule: Q01DX009 (ip), vehicle: water): 156 % of control
T/C (dose: 65.0 mg/kg/injection, schedule: Q01DX015 (oral), vehicle: saline): 104 % of control
T/C (dose: 65.0 mg/kg/injection, schedule: Q01DX Z (ip), vehicle: water): 157 % of control
T/C (dose: 100.0 mg/kg/injection, schedule: Q01DX001 (ip), vehicle: saline): 106 % of control and 107 % of control
T/C (dose: 100.0 mg/kg/injection, schedule: Q01DX015 (oral), vehicle: saline): 120 % of control
T/C (dose: 100.0 mg/kg/injection, schedule: Q01DX Z (im), vehicle: saline): 154 % of control
T/C (dose: 100.0 mg/kg/injection, schedule: Q## X001 (ip), vehicle: saline): 103 % of control
T/C (dose: 107.0 mg/kg/injection, schedule: Q01DX Z (ip), vehicle: water): 154 % of control
T/C (dose: 128.0 mg/kg/injection, schedule: Q01DX001 (oral), vehicle: saline): 112 % of control
T/C (dose: 128.0 mg/kg/injection, schedule: Q01DX009 (ip), vehicle: water): 151 % of control
T/C (dose: 128.0 mg/kg/injection, schedule: Q## X003 (oral), vehicle: saline): 119 % of control
T/C (dose: 128.0 mg/kg/injection, schedule: Q## X024 (oral), vehicle: saline): 115 % of control
T/C (dose: 150.0 mg/kg/injection, schedule: Q01DX Z (ip), vehicle: saline): 159 % of control
T/C (dose: 150.0 mg/kg/injection, schedule: Q04DX005 (ip), vehicle: water): 118 % of control
T/C (dose: 150.0 mg/kg/injection, schedule: Q#A X034 (ip), vehicle: water): 124 % of control
T/C (dose: 180.0 mg/kg/injection, schedule: Q01DX Z (ip), vehicle: water): 122 % of control
T/C (dose: 200.0 mg/kg/injection, schedule: Q01DX001 (ip), vehicle: saline): 109 % of control
T/C (dose: 200.0 mg/kg/injection, schedule: Q01DX Z (sc), vehicle: saline): 160 % of control
T/C (dose: 200.0 mg/kg/injection, schedule: Q## X001 (ip), vehicle: saline): 111 % of control
T/C (dose: 250.0 mg/kg/injection, schedule: Q01DX001 (ip), vehicle: saline): 112 % of control
T/C (dose: 250.0 mg/kg/injection, schedule: Q01DX Z (ip), vehicle: saline): 157 % of control
T/C (dose: 251.0 mg/kg/injection, schedule: Q01DX Z (ip), vehicle: saline): 108 % of control
T/C (dose: 256.0 mg/kg/injection, schedule: Q01DX001 (oral), vehicle: saline): 112 % of control
T/C (dose: 256.0 mg/kg/injection, schedule: Q01DX009 (ip), vehicle: saline): 150 % of control
T/C (dose: 256.0 mg/kg/injection, schedule: Q01DX009 (oral), vehicle: saline): 157 % of control
T/C (dose: 256.0 mg/kg/injection, schedule: Q03HX016 (ip), vehicle: water): 153 % of control
T/C (dose: 256.0 mg/kg/injection, schedule: Q04DX003 (ip), vehicle: water): 116 % of control
T/C (dose: 300.0 mg/kg/injection, schedule: Q01DX001 (ip), vehicle: water): 106 % of control
T/C (dose: 300.0 mg/kg/injection, schedule: Q01DX017 (ip), vehicle: water): 119 % of control
T/C (dose: 300.0 mg/kg/injection, schedule: Q01DX Z (ip), vehicle: water): 102 % of control
T/C (dose: 300.0 mg/kg/injection, schedule: Q01DX Z (oral), vehicle: saline): 116 % of control
T/C (dose: 300.0 mg/kg/injection, schedule: Q03DX Z (ip), vehicle: saline): 118 % of control
T/C (dose: 300.0 mg/kg/injection, schedule: Q04DX005 (ip), vehicle: water): 123 % of control
T/C (dose: 320.0 mg/kg/injection, schedule: Q01DX015 (ip), vehicle: saline): 98 % of control
T/C (dose: 350.0 mg/kg/injection, schedule: Q01DX Z (ip), vehicle: saline): 111 % of control
T/C (dose: 351.0 mg/kg/injection, schedule: Q01DX Z (ip), vehicle: saline): 114 % of control
T/C (dose: 400.0 mg/kg/injection, schedule: Q01DX001 (ip), vehicle: saline): 98 % of control and 113 % of control
T/C (dose: 400.0 mg/kg/injection, schedule: Q01DX Z (im), vehicle: saline): 159 % of control
T/C (dose: 400.0 mg/kg/injection, schedule: Q## X001 (ip), vehicle: saline): 116 % of control
T/C (dose: 480.0 mg/kg/injection, schedule: Q01DX015 (ip), vehicle: saline): 98 % of control
T/C (dose: 500.0 mg/kg/injection, schedule: Q01DX001 (ip), vehicle: saline): 112 % of control
T/C (dose: 512.0 mg/kg/injection, schedule: Q01DX001 (oral), vehicle: saline): 112 % of control
T/C (dose: 512.0 mg/kg/injection, schedule: Q01DX009 (ip), vehicle: saline): 117 % of control
T/C (dose: 512.0 mg/kg/injection, schedule: Q04DX003 (ip), vehicle: water): 120 % of control
T/C (dose: 512.0 mg/kg/injection, schedule: Q## X008 (oral), vehicle: saline): 121 % of control
T/C (dose: 600.0 mg/kg/injection, schedule: Q01DX001 (ip), vehicle: water): 107 % of control
T/C (dose: 600.0 mg/kg/injection, schedule: Q01DX Z (oral), vehicle: saline): 106 % of control
T/C (dose: 600.0 mg/kg/injection, schedule: Q02DX009 (ip), vehicle: water): 159 % of control
T/C (dose: 600.0 mg/kg/injection, schedule: Q04DX005 (ip), vehicle: water): 119 % of control
T/C (dose: 800.0 mg/kg/injection, schedule: Q01DX001 (ip), vehicle: saline): 107 % of control and 116 % of control
T/C (dose: 800.0 mg/kg/injection, schedule: Q01DX006 (iv), vehicle: saline): 154 % of control
T/C (dose: 800.0 mg/kg/injection, schedule: Q01DX Z (ip), vehicle: saline): 124 % of control
T/C (dose: 800.0 mg/kg/injection, schedule: Q01DX Z (oral), vehicle: saline): 110 % of control
T/C (dose: 800.0 mg/kg/injection, schedule: Q## X001 (ip), vehicle: saline): 121 % of control
T/C (dose: 1000.0 mg/kg/injection, schedule: Q01DX001 (ip), vehicle: saline): 123 % of control
T/C (dose: 1024.0 mg/kg/injection, schedule: Q01DX001 (oral), vehicle: saline): 121 % of control
T/C (dose: 1024.0 mg/kg/injection, schedule: Q01DX009 (oral), vehicle: saline): 101 % of control
T/C (dose: 1024.0 mg/kg/injection, schedule: Q## X003 (oral), vehicle: saline): 156 % of control
T/C (dose: 1200.0 mg/kg/injection, schedule: Q01DX001 (ip), vehicle: water): 104 % of control
T/C (dose: 1200.0 mg/kg/injection, schedule: Q01DX Z (im), vehicle: saline): 121 % of control
T/C (dose: 1200.0 mg/kg/injection, schedule: Q01DX Z (sc), vehicle: saline): 115 % of control
T/C (dose: 1200.0 mg/kg/injection, schedule: Q04DX005 (ip), vehicle: water): 119 % of control
T/C (dose: 1600.0 mg/kg/injection, schedule: Q01DX Z (im), vehicle: saline): 113 % of control
T/C (dose: 1600.0 mg/kg/injection, schedule: Q01DX Z (oral), vehicle: saline): 97 % of control
T/C (dose: 1600.0 mg/kg/injection, schedule: Q01DX Z (sc), vehicle: saline): 107 % of control
T/C (dose: 2400.0 mg/kg/injection, schedule: Q01DX001 (ip), vehicle: water): 104 % of control
T/C (dose: 4096.0 mg/kg/injection, schedule: Q## X008 (oral), vehicle: saline): 151 % of control
